≈ marks a conversion by molar mass, not a printed value.
Tests used:
Vero CCL-81 cells [1] = assay: Dose-dependent assay (Chou-Talalay, CompuSyn) from MTT data; assay type: cell-based
Procedure: The compounds were analyzed using MTT assay data. By applying the Chou-Talalay method, the dose-dependent effect was calculated (Elwakeel et al. [2019]). This calculation was performed using CompuSyn software. The dose–effect curves were created for both single treatments, and the fraction affected (Fa) values were determined for each dose and corresponding effect as previously reported (El-Sewedy et al. [2023]). The dose-dependent assay was carried out in triplicate to guarantee reproducibility.

SARS-CoV-2 = assay type: cell-based
Vero CCL-81 cells [2] = assay: MTT cytotoxicity assay; assay type: cell-based; details: 48 h
Procedure: An MTT (3-[4,5-dimethylthiazol-2-yl]-2,5 diphenyl tetrazolium bromide) assay was used to measure the effects of the selected compounds on Vero CCL-81 cells to ascertain the cytotoxicity of the compounds (Njeru and Muema [2021]; El-Shehawy et al. [2023]). To summarize, Vero CCL-81 cells were seeded in 96-well plates with 1.0 × 10^4 cells per well in DMEM supplemented with 2% FBS at a density of 1.0 × 10^4 cells per well. In the following step, the plates were incubated at 37 °C with 5% CO2 for 24 h before they were collected. A dilution of 150 µL of compounds was added in quadruplicate to each well after the incubation, and the wells were kept at 37 °C with 5% CO2 for 48 h. After the PBS was added to each well, a final step was to add 30 µL of MTT, remove the supernatants, and wash with PBS twice. A 2 h incubation period was conducted after MTT addition, at 37 °C, using 5% CO2, and it was protected from light for 2 h. A 100 µL/well DMSO solution was added to the wells to dissolve the formazan crystals (El-Sewedy et al. [2023]). Positive controls (cells treated with a known cytotoxic agent) and negative controls (untreated cells) were included in each experiment and were in triplicate.

[3] = Cupric ion reducing antioxidant capacity assay (CUPRAC)
Procedure: The CUPRAC assay evaluates the ability of antioxidants to reduce cupric ions (Cu^2⁺) to cuprous ions (Cu^1⁺), forming a stable colored complex with neocuproine. For the assay, a CUPRAC reagent is prepared by mixing 10 mL of 10 mM copper(II) chloride (CuCl₂), 10 mL of 7.5 mM neocuproine, and 10 mL of ammonium acetate buffer (pH 7.0). […] Trolox is again used as the positive control and prepared at the same concentrations. For the assay, 1 mL of each sample concentration or Trolox is mixed with 1 mL of CUPRAC reagent in a 96-well plate or test tube. The reaction mixture is incubated at room temperature for 30 min to allow a complete reduction of Cu^2⁺ to Cu^1⁺. The absorbance is then measured at 450 nm using a UV–visible spectrophotometer. The antioxidant capacity is determined by comparing the absorbance to a Trolox standard curve, and the results were expressed as µmol Trolox equivalents/g of the sample. All measurements are performed in triplicate.

[4] = Ferric reducing antioxidant power assay (FRAP)
Procedure: The FRAP assay is based on the reduction of ferric ions (Fe^3⁺) to ferrous ions (Fe^2⁺) in the presence of antioxidants. The reduced Fe^2⁺ forms a blue-colored complex with 2,4,6-tripyridyl-s-triazine (TPTZ), and the intensity of the color is directly proportional to the reducing power of the sample, which can be quantified spectrophotometrically. For the assay, an acetate buffer (300 mM, pH 3.6) is prepared by dissolving […] in 1 L of distilled water. The TPTZ solution (10 mM) is dissolved in 40 mM HCl, and the ferric chloride solution (FeCl₃, 20 mM) is prepared separately. The FRAP reagent is freshly prepared before the assay by mixing 10 parts acetate buffer, 1 part TPTZ solution, and 1 part FeCl₃ solution. This reagent is kept at 37 °C to ensure its stability during the reaction. For the sample preparation, different concentrations of samples were dissolved in methanol. Trolox, a well-known antioxidant, is used as the positive control and prepared at the same concentrations for comparison. To conduct the assay, 100 µL of each sample or Trolox solution is mixed with 3 mL of freshly prepared FRAP reagent in a 96-well plate or test tube. The mixtures are incubated at 37 °C for 30 min, allowing the antioxidants in the samples to reduce the Fe^3⁺ ions to Fe^2⁺. After incubation, the absorbance of the resulting blue-colored complex is measured at 593 nm using a UV–visible spectrophotometer. The FRAP value of each sample is calculated by comparing the absorbance to a standard curve generated using known concentrations of ferrous sulfate (FeSO₄). The antioxidant capacity is expressed as µmol Fe^2⁺ equivalents/g of the sample. The experiment included three separate readings for every measurement.

[5] = ABTS radical cation scavenging activity
Procedure: The activity of scavenging ABTS radical cation was assessed across various concentrations, and the outcomes were juxtaposed with those obtained from standard materials. The selected compounds and vitamin C were evaluated at corresponding concentrations, following the methodology outlined in a prior study (AlBalawi et al. [2023]). Using the absorbance reading at 734 nm, the percentage of ABTS radical cation scavenging activity was computed using the formula: %ABTSradicalcationscavengingactivity=1-AsampleAsampleAcontrolAcontrol×100TopofForm

COc1cc(/C=C/C(=O)CC(=O)/C=C/c2ccc(O)c(OC)c2)ccc1O [Curcumin]
Dose at fraction affected (Fa) (Vero CCL-81 cells [1]; Fa 0.5, 48 h treatment): 9.421
Dose at fraction affected (Fa) (Vero CCL-81 cells [1]; Fa 0.75, 48 h treatment): 20.7718
Dose at fraction affected (Fa) (Vero CCL-81 cells [1]; Fa 0.9, 48 h treatment): 45.7973
Dose at fraction affected (Fa) (Vero CCL-81 cells [1]; Fa 0.95, 48 h treatment): 78.4112
Dose at fraction affected (Fa) (Vero CCL-81 cells [1]; Fa 0.97, 48 h treatment): 114.960
effect on SARS-CoV-2 viral titer (SARS-CoV-2): reduced viral titer
IC50 (Vero CCL-81 cells [2]): 83.2 µg/mL (≈ 226 µM)

O=c1c(O)c(-c2ccc(O)c(O)c2)oc2cc(O)cc(O)c12 [Quercetin]
Dose at fraction affected (Fa) (Vero CCL-81 cells [1]; Fa 0.5, 48 h treatment): 12.0260
Dose at fraction affected (Fa) (Vero CCL-81 cells [1]; Fa 0.75, 48 h treatment): 46.3852
Dose at fraction affected (Fa) (Vero CCL-81 cells [1]; Fa 0.9, 48 h treatment): 178.911
Dose at fraction affected (Fa) (Vero CCL-81 cells [1]; Fa 0.95, 48 h treatment): 448.103
Dose at fraction affected (Fa) (Vero CCL-81 cells [1]; Fa 0.97, 48 h treatment): 861.173
concentration to which antiviral properties were limited (SARS-CoV-2): 100 µg/mL
effect on SARS-CoV-2 viral titer (SARS-CoV-2): no noticeable change in viral titer
CUPRAC ± SD ([3]; 10 µg/mL): 115.25 ± 3.70 μmol Trolox eq/g
CUPRAC ± SD ([3]; 20 µg/mL): 190.20 ± 5.00 μmol Trolox eq/g
CUPRAC ± SD ([3]; 40 µg/mL): 340.30 ± 7.00 μmol Trolox eq/g
CUPRAC ± SD ([3]; 80 µg/mL): 590.10 ± 9.50 μmol Trolox eq/g
CUPRAC ± SD ([3]; 100 µg/mL): 780.55 ± 11.20 μmol Trolox eq/g
FRAP ± SD ([4]; 10 µg/mL): 120.30 ± 4.00 μmol Fe^2⁺ eq/g
FRAP ± SD ([4]; 20 µg/mL): 200.15 ± 5.20 μmol Fe^2⁺ eq/g
FRAP ± SD ([4]; 40 µg/mL): 350.45 ± 7.50 μmol Fe^2⁺ eq/g
FRAP ± SD ([4]; 80 µg/mL): 600.55 ± 10.10 μmol Fe^2⁺ eq/g
FRAP ± SD ([4]; 100 µg/mL): 800.45 ± 12.50 μmol Fe^2⁺ eq/g
ABTS ± SD ([5]; 10 µg/mL): 130.40 ± 4.50 μmol Trolox eq/g
ABTS ± SD ([5]; 20 µg/mL): 210.10 ± 6.00 μmol Trolox eq/g
ABTS ± SD ([5]; 40 µg/mL): 360.40 ± 8.00 μmol Trolox eq/g
ABTS ± SD ([5]; 80 µg/mL): 620.20 ± 11.50 μmol Trolox eq/g
ABTS ± SD ([5]; 100 µg/mL): 820.30 ± 14.00 μmol Trolox eq/g
IC50 (Vero CCL-81 cells [2]): 55.2 µg/mL (≈ 183 µM)

CCC(CC)COC(=O)[C@H](C)N[P@](=O)(OC[C@H]1O[C@@](C#N)(c2ccc3c(N)ncnn23)[C@H](O)[C@@H]1O)Oc1ccccc1 [RVD, Remdesivir, reference compound]
decrease in SARS-CoV-2 viral titer (SARS-CoV-2): 100%

Cc1c(C)c2c(c(C)c1O)CCC(C)(C(=O)O)O2 (stereo not shown) [Trolox, reference compound]
CUPRAC ± SD ([3]; 1000 µg/mL): 1100.00 ± 17.50 μmol Trolox eq/g
FRAP ± SD ([4]; 1000 µg/mL): 1200.00 ± 20.00 μmol Fe^2⁺ eq/g
ABTS ± SD ([5]; 1000 µg/mL): 1300.00 ± 22.00 μmol Trolox eq/g

— publication PMC11602940, “Assessing multi-target antiviral and antioxidant activities of natural compounds against SARS-CoV-2: an integrated in vitro and in silico study” (Bioresources and Bioprocessing, 2024)
